Data published in ChEMBL document CHEMBL4627278, “Discovery of 2-aminoisobutyric acid ethyl ester (AIBEE) phosphoramidate prodrugs for delivering nucleoside HCV NS5B polymerase inhibitors” (Bioorg Med Chem Lett, 2020).
≈ marks a conversion by molar mass, not a printed value.

Assays:
[1] = Intrinsic clearance in human hepatocytes; assay type: ADME, cell-based, Hepatocyte; conditions: read-out: CLH (converted)
[2] = Half life in human hepatocytes; assay type: ADME, cell-based, Hepatocyte
[3] = Aqueous solubility of compound at pH 7.4; assay type: physicochemical; conditions: buffer
[4] = Prodrug conversion in human hepatocytes assessed as nucleotide triphosphate level at 100 uM incubated for 4 hrs followed by compound washout and further incubated in fresh media for 24 hrs; assay type: ADME, cell-based, Hepatocyte
[5] = Prodrug conversion in human hepatocytes assessed as nucleotide triphosphate level at 100 uM after 4 hrs; assay type: ADME, cell-based, Hepatocyte
[6] = Prodrug conversion in dog liver assessed as 2-((((2R,3R,4R,5R)-4-bromo-4-chloro-5-(2,4-dioxo-3,4-dihydropyrimidin-1(2H)-yl)-3-hydroxytetrahydrofuran-2-yl)methoxy)(hydroxy)phosphorylamino)-2-methylpropanoic acid level at 5 mg/kg, po after 4 hrs; assay type: ADME, organism-based, Canis lupus familiaris; conditions: in vivo
[7] = Cytotoxicity against human HuH7 cells assessed as reduction in cell viability; assay type: cell-based, Huh-7; conditions: read-out: TD50 (the source's name)
[8] = Stability in dog plasma assessed as parent compound remaining after 4 hrs; assay type: ADME, cell-free, Canis lupus familiaris; conditions: read-out: Stability
[9] = Prodrug conversion in dog liver assessed as 1-((2R,3R,4R,5R)-3-bromo-3-chloro-4-hydroxy-5-(hydroxymethyl)tetrahydrofuran-2-yl)pyrimidine-2,4(1H,3H)-dione level at 5 mg/kg, po after 24 hrs; assay type: ADME, organism-based, Canis lupus familiaris; conditions: in vivo
[10] = Prodrug conversion in dog liver assessed as (2S)-2-((((2R,3R,4R,5R)-4-bromo-4-chloro-5-(2,4-dioxo-3,4-dihydropyrimidin-1(2H)-yl)-3-hydroxytetrahydrofuran-2-yl)methoxy)(hydroxy)phosphorylamino)propanoic acid level at 5 mg/kg, po after 4 hrs; assay type: ADME, organism-based, Canis lupus familiaris; conditions: in vivo
[11] = Prodrug conversion in dog liver assessed as nucleotide triphosphate level at 5 mg/kg, po after 4 hrs; assay type: ADME, organism-based, Canis lupus familiaris; conditions: in vivo
[12] = Prodrug conversion in dog liver assessed as nucleotide triphosphate level at 5 mg/kg, po measured after 24 hrs; assay type: ADME, organism-based, Canis lupus familiaris; conditions: in vivo
[13] = Prodrug conversion in dog liver assessed as nucleotide triphosphate level at 5 mg/kg, po co-dosed with 5 mg/kg sofosbuvir after 24 hrs; assay type: ADME, organism-based, Canis lupus familiaris; conditions: in vivo
[14] = Prodrug conversion in dog liver assessed as (2S)-2-((((2R,3R,4R,5R)-4-bromo-4-chloro-5-(2,4-dioxo-3,4-dihydropyrimidin-1(2H)-yl)-3-hydroxytetrahydrofuran-2-yl)methoxy)(hydroxy)phosphorylamino)propanoic acid level at 5 mg/kg, po after 24 hrs; assay type: ADME, organism-based, Canis lupus familiaris; conditions: in vivo
[15] = Prodrug conversion in dog liver assessed as nucleotide triphosphate level at 5 mg/kg, po co-dosed with 5 mg/kg sofosbuvir after 4 hrs; assay type: ADME, organism-based, Canis lupus familiaris; conditions: in vivo
[16] = Prodrug conversion in dog liver assessed as 2-((((2R,3R,4R,5R)-4-bromo-4-chloro-5-(2,4-dioxo-3,4-dihydropyrimidin-1(2H)-yl)-3-hydroxytetrahydrofuran-2-yl)methoxy)(hydroxy)phosphorylamino)-2-methylpropanoic acid level at 5 mg/kg, po after 24 hrs; assay type: ADME, organism-based, Canis lupus familiaris; conditions: in vivo
[17] = Stability in human plasma assessed as parent compound remaining after 4 hrs; assay type: ADME, cell-free; conditions: read-out: Stability
[18] = Prodrug conversion in dog liver assessed as 1-((2R,3R,4R,5R)-3-bromo-3-chloro-4-hydroxy-5-(hydroxymethyl)tetrahydrofuran-2-yl)pyrimidine-2,4(1H,3H)-dione level at 5 mg/kg, po after 4 hrs; assay type: ADME, organism-based, Canis lupus familiaris; conditions: in vivo
[19] = Lipophilicity, log D of compound; assay type: physicochemical; conditions: octanol/water

Row | SMILES | CLint scaled [1] [mL/min/kg] | half-life [2] [min] | solubility [3] [µM] | Drug metabolism [4] [µM] | Drug metabolism [5] [µM] | Drug metabolism [6] [µg/g] | CC50 [7] [µM] | remaining at 4 h [8] [%] | Drug metabolism [9] [µg/g] | Drug metabolism [10] [µg/g] | Drug metabolism [11] [µg/g] | Drug metabolism [12] [µg/g] | Drug metabolism [13] [µg/g] | Drug metabolism [14] [µg/g] | Drug metabolism [15] [µg/g] | Drug metabolism [16] [µg/g] | remaining at 4 h [17] [%] | Drug metabolism [18] [µg/g] | logD [19]
1 | CC(C)OC(=O)[C@H](C)N[P@](=O)(OC[C@H]1O[C@@H](n2ccc(=O)[nH]c2=O)[C@](Cl)(Br)[C@@H]1O)Oc1cccc2ccccc12 | 575 | > 30 | 17 (≈ 11.2 µg/mL) | 9 | 81 | – | – | – | – | – | – | – | – | – | – | – | – | – | –
2 | CCOC(=O)[C@H](C)N[P@](=O)(OC[C@H]1O[C@@H](n2ccc(=O)[nH]c2=O)[C@](Cl)(Br)[C@@H]1O)Oc1ccccc1 | 152 | > 30 | – | 18 | 90 | – | – | – | – | – | – | – | – | – | – | – | – | – | –
3 | CC(C)OC(=O)[C@H](C)N[P@](=O)(OC[C@H]1O[C@@H](n2ccc(=O)[nH]c2=O)[C@](Cl)(Br)[C@@H]1O)Oc1ccccc1 | 273 | 15 | 23 (≈ 14 µg/mL) | 22 | 110 | 0.066 | 62 | 92 | 0.011 | 0.066 | 0.088 | 0.049 | 1.02 | 0.006 | 1.59 | 0.006 | 92 | 1.469 | 3.51
4 | CC(C)OC(=O)C(C)(C)NP(=O)(OC[C@H]1O[C@@H](n2ccc(=O)[nH]c2=O)[C@](Cl)(Br)[C@@H]1O)Oc1ccccc1 (some centres not stated) | 192 | > 30 | > 200 | 40 | 157 | – | – | 104 | 0.04 | – | 0.713 | 0.244 | 3.43 | – | 4.2 | – | 109 | 0.252 | –
5 | CC(C)OC(=O)[C@H](C)N[P@](=O)(OC[C@H]1O[C@@H](n2ccc(=O)[nH]c2=O)[C@](Cl)(Br)[C@@H]1OC(=O)[C@@H](N)C(C)C)Oc1ccccc1 | – | > 30 | > 200 | 24 | 169 | 0.359 | – | – | 0.029 | 0.359 | 0.828 | 0.409 | 2.89 | 0.006 | 3.1 | 0.006 | – | 0.341 | –
6 | CC(C)OC(=O)[C@H](C)N[P@](=O)(OC[C@H]1O[C@@H](n2ccc(=O)[nH]c2=O)[C@](C)(F)[C@@H]1O)Oc1ccccc1 [SOFOSBUVIR] | 71.7 | 120 | > 200 | 122 | 97 | – | > 100 | – | – | – | – | – | – | – | – | – | – | – | 3.02
7 | COCC(=O)OC[C@H](C)NP(=O)(OC[C@H]1O[C@@H](n2ccc(=O)[nH]c2=O)[C@](Cl)(Br)[C@@H]1O)Oc1ccccc1 (some centres not stated) | 223 | > 30 | – | 16 | 120 | – | – | – | – | – | – | – | – | – | – | – | – | – | –
8 | COCC(C)OC(=O)[C@H](C)NP(=O)(OC[C@H]1O[C@@H](n2ccc(=O)[nH]c2=O)[C@](Cl)(Br)[C@@H]1O)Oc1ccccc1 (some centres not stated) | 242 | > 30 | > 200 | 31 | 465 | – | – | 84 | 0.038 | – | 0.329 | 0.188 | – | – | – | – | 87 | 0.187 | –
9 | COc1cccc(O[P@](=O)(N[C@@H](C)C(=O)OC(C)C)OC[C@H]2O[C@@H](n3ccc(=O)[nH]c3=O)[C@](Cl)(Br)[C@@H]2O)c1 | 335 | > 30 | 20 (≈ 12.8 µg/mL) | 14 | 35 | – | – | – | – | – | – | – | – | – | – | – | – | – | –
10 | CC(C)C(=O)OC[C@H](C)NP(=O)(OC[C@H]1O[C@@H](n2ccc(=O)[nH]c2=O)[C@](Cl)(Br)[C@@H]1O)Oc1ccccc1 (some centres not stated) | – | > 30 | > 200 | 32 | 2377 | 0.151 | – | 54 | 0.006 | 0.151 | 0.252 | 0.037 | 1.12 | < 0.005 | 3.04 | < 0.005 | 0 | 0.177 | –
11 | CCOC(=O)[C@H](C)N[P@@](=O)(OC[C@H]1O[C@@H](n2ccc(=O)[nH]c2=O)[C@](Cl)(Br)[C@@H]1O)Oc1ccccc1 | 185 | > 30 | – | 39 | 738 | – | – | – | – | – | – | – | – | – | – | – | – | – | –
12 | CC(C)OC(=O)[C@H](C)N[P@@](=O)(OC[C@H]1O[C@@H](n2ccc(=O)[nH]c2=O)[C@](Cl)(Br)[C@@H]1O)Oc1ccccc1 | 202 | > 30 | > 200 | 24 | 107 | 0.644 | – | – | 0.009 | 0.644 | 0.143 | 0.036 | 1.26 | < 0.005 | 1.76 | < 0.005 | – | 0.501 | –
13 | COCC(C)C(=O)OC[C@H](C)NP(=O)(OC[C@H]1O[C@@H](n2ccc(=O)[nH]c2=O)[C@](Cl)(Br)[C@@H]1O)Oc1ccccc1 (some centres not stated) | 282 | > 30 | – | 24 | 188 | – | – | – | – | – | – | – | – | – | – | – | – | – | –
14 | CC(C)OC(=O)[C@H](C)N[P@](=O)(OC[C@H]1O[C@@H](n2ccc(=O)[nH]c2=O)[C@](Cl)(Br)[C@@H]1OC(=O)[C@@H](N)C(C)C)Oc1cccc2ccccc12 | – | > 30 | 4 (≈ 3.04 µg/mL) | – | – | – | – | – | – | – | – | – | – | – | – | – | – | – | –
15 | CCOC(=O)[C@H](C)NP(=O)(OC[C@H]1O[C@@H](n2ccc(=O)[nH]c2=O)[C@](Cl)(Br)[C@@H]1O)Oc1ccccc1 (some centres not stated) | – | – | – | – | – | 0.357 | – | 93 | < 0.025 | 0.357 | 1.24 | 0.629 | 3.18 | 0.007 | 3.87 | 0.007 | 86 | 0.821 | –
16 | CCOC(=O)C(C)(C)NP(=O)(OC[C@H]1O[C@@H](n2ccc(=O)[nH]c2=O)[C@](Cl)(Br)[C@@H]1O)Oc1ccccc1 (some centres not stated) | 685 | > 30 | > 200 | 43 | 2114 | 0.232 | – | 111 | 0.192 | 0.232 | 14.73 | 4.56 | 3.47 | 0.065 | 4.02 | 0.065 | 103 | 1.335 | –
